Results reported in patent US8247609B2, “Aminoacid derivatives containing a disulfanyl group in the form of mixed disulfanyl and aminopeptidase N inhibitors” (Pharamleads, priority 2005, dated 2012).
Marks after values point to notes of the source that are not given here.

Legend:
Log Kow = format: physicochemical
[1] = system: mice inoculated in their right paw with NCTC 2472 cells; assay: Osteosarcoma-induced thermal hyperalgesia, unilateral hot plate test; format: in vivo, mouse
From the text: The comparison and possible facilitation of compound 15 analgesic effect by Gabapentin was investigated on the animal model of bone cancer induced by intraosteal inoculation of NCTC2472 tumor cells (Honoré P. et al., Neuroscience 98 (2000), 585-588 Mendez L. et al. J. Neurosci. Methods 113 (2002), 91-97).
The methods used to measure the analgenisc effects (antihyperalgesia and allodynia) of various compounds of this animal model have been described in details and are used (Menendez L. et al. Brain Res. 969 (2003), 102-109) in these series of experiments.
Osteosarcoma-induced thermal hyperalgesia measured by the unilateral hot plate test was inhibited by the oral administration of compound 15 (25 mg/kg). This inhibitory effect peaked 20-40 min after compound 15 administration, disappearing at time 60 (FIG. 4A).
At this concentration the antagonist is unable to enter the brain supporting a peripheral analgesic effects of compound 15. ** p≦0.01. […]

male OF1 mice = assay: Hot plate test (52° C., jump latency) in mice; format: in vivo, mouse
Method: Hot plate test: this test relates to the licking and jumping reflex in mice on a plate heated at 52° C. (measurement of jump latency in the examples given). The results are expressed in % of maximum possible effect (% MPE), i.e., expressed as a percentage of analgesia, using the following equation:
Maximum latency time=240 seconds.
The results are expressed in term of mean±SEM. The differences observed are considered significant when the values of p are less than 0.05. The test used is an ANOVA test with a multiple comparison test.
Compound 15 is dissolved in a water/mannitol mixture (50 mg/ml). Jump latency times are measured 10 min after the injections by intravenous route.
Compound 15 is dissolved in a ethanol/Cremophor® EL/water mixture. Jump latency times are measured 10 min after intravenous injection.
Compound 15 is dissolved in an ethanol/PEG400/water 10/40/50 mixture.
Compounds 15 and A are dissolved in an ethanol/Cremophor EL/water 10/10/80 mixture. Jump latency times are measured 10 min after intravenous injection.
The analgesia produced by morphine or compound 15 in mice (male OF1) in the hot plate test (52° C.) was measured. Morphine in H2O/NaCl, 9/1000) or compound 15 dissolved in the vehicle EtOH/Cremophor El/water (10/10/80) is injected by IV. The results are measured 10 minutes after injection and latency time is 240 seconds (equation given in examples 15 and 17).
The analgesia produced by Δ^9 THC in mice (male OF1) in the plate hot test (52° C.) was measured. Δ^9 THC, dissolved in the vehicle EtOH/Cremophor EL/water (10/10/80), is injected by IV route. The results are measured 10 minutes after injection and latency time is 240 seconds (equation given in examples 15 and 17).
This test relates to the licking and jumping reflex in mice on a plate heated at 52° C. The results are expressed in % of maximum possible effect (% MPE), i.e., expressed as a percentage of analgesia, using the following equation:
Maximum latency time=240 s.
The mice weigh 25-30 grams.
Jump latency is measured 10 minutes after intravenous injection.

Solubility in solvents = format: physicochemical

Compound: CCOC(=O)OC(C)OC(=O)CNC(=O)C(CSSCC(N)CCSC)Cc1ccccc1.O=C(O)C(F)(F)F (stereo not shown) [Compound 12k]
- Log Kow (Log Kow): 1.39

Compound: 1-(2-(1-ethoxycarbonylmethyloxycarbonylethylcarbamoyl)-3-thiophen-3-yl-propyldi sulfanylmethyl)-3-methylsulfanylpropyl-ammonium trifluoroacetate [Compound 12d]
- Log Kow (Log Kow): 1.35

Compound: CSCCC(N)CSSCC(Cc1ccsc1)C(=O)NC(C)C(=O)OCCS(C)(=O)=O.O=C(O)C(F)(F)F (stereo not shown) [Compound 12b, 1-(2-(1-(2-methanesulfonylethoxycarbonyl)-ethylcarbamoyl)-3-thiophen-3-ylpropyldisulfanylmethyl)-3-methylsulfanylpropyl-ammonium trifluoroacetate]
- Log Kow (Log Kow): −0.13

Compound: CCOC(=O)OC(C)OC(=O)C(NC(=O)C(CSSCC(N)CCSC)Cc1ccccc1)C(C)O.O=C(O)C(F)(F)F (stereo not shown) [Compound 12i]
- Log Kow (Log Kow): 0.76

Compound: CSCCC(N)CSSCC(Cc1ccsc1)C(=O)NC(C)C(=O)OC(COC(C)=O)COC(C)=O.O=C(O)C(F)(F)F (stereo not shown) [Compound 12f, 1-(2-(1-(2-acetoxy-1-acetoxymethylethoxycarbonyl)-ethylcarbamoyl)-3-thiophen-3-ylpropyldisulfanylmethyl)-3-methylsulfanylpropyl-ammonium trifluoroacetate]
- Log Kow (Log Kow): 1.31

Compound: NCC1(CC(=O)O)CCCCC1 [Gabapentin]
- Antihyperalgesic effect ([1]; 6.25 mg/kg i.p., 60 minutes after injection (FIG. 6B)): subeffective
- Antihyperalgesic effect ([1]; 12.5 mg/kg i.p., 60 minutes after injection): significant antihyperalgesic effect
- Antihyperalgesic effect ([1]; 25 mg/kg i.p., 40 and 60 min after injection (FIG. 6A)): clear antihyperalgesic effect
- Withdrawal latencies ([1]; 25 mg/kg i.p., 20 min after administration): No modification of withdrawal latencies
- Antihyperalgesic effect ([1]; 25 mg/kg i.p., 60 minutes after injection): completely suppressed the hyperalgesic effect
- Withdrawal latencies of contralateral paws ([1]; 6.25-25 mg/kg i.p.): None of these doses of Gabapentin modified the withdrawal latencies of contralateral paws
- Antihyperalgesic effect when administered alone ([1]; compound 15 12.5 mg/kg 20 min before testing, or Gabapentin 6.25 mg/kg 60 min before testing): do not produce any antihyperalgesic effect

Compound: CN1CC[C@]23c4c5ccc(O)c4O[C@H]2[C@@H](O)C=C[C@H]3[C@H]1C5 [morphine, reference compound]
- % analgesia (male OF1 mice; 1 mg/kg IV, 10 min after injection (Table 6)): 45.5 ± 4.5 %
- % analgesia (male OF1 mice; 2.5 mg/kg IV, 10 min after injection (Table 6)): 66 ± 6.0 %
- % analgesia (male OF1 mice; 5 mg/kg IV, 10 min after injection (Table 6)): 100*** %
- ED50 (male OF1 mice; Mus musculus, iv, 10 min, read-out: ED50 (analgesic response)): 1.3 ± 0.2 mg/kg

Compound: CCOC(=O)OC(C)OC(=O)C(C)NC(=O)C(CSSCC(N)CCSC)Cc1ccsc1.O=C(O)C(F)(F)F (stereo not shown) [Compound 12c]
- Log Kow (Log Kow): 1.63

Compound: CSCCC(N)CSSCC(Cc1ccccc1)C(=O)NC(C(=O)OC(COC(C)=O)COC(C)=O)C(C)O.O=C(O)C(F)(F)F (stereo not shown) [Compound 12j, 1-(2-(1-(2-acetoxy-1-acetoxymethyl-thoxycarbonyl)-2-hydroxypropylcarbamoyl)-3-phenylpropyldisulfanylmethyl)-3-methylsulfanylpropyl-ammonium trifluoroacetate]
- Log Kow (Log Kow): 0.44

Compound: CSCCC(N)CSSCC(Cc1ccsc1)C(=O)NC(C)C(=O)OCC(COC(C)=O)OC(C)=O.O=C(O)C(F)(F)F (stereo not shown) [Compound 12a, 1-(2-(1-(2,3-diacetoxypropoxycarbonyl)-ethylcarbamoyl)-3-thiophen-3-ylpropyldisulfanylmethyl)-3-methylsulfanylpropyl-ammonium trifluoroacetate]
- Log Kow (Log Kow): 1.31

Compound: CSCCC(N)CSSCC(Cc1ccsc1)C(=O)NC(C)C(=O)OCC1OC(O)C(O)C(O)C1O.O=C(O)C(F)(F)F (stereo not shown) [Compound 12h, 1-(2-(1-(3,4,5,6-tetrahydroxytetrahydropyran-2-ylmethoxycarbonyl)ethylcarbamoyl)-3-thiophen-3-yl-propyldisulfanylmethyl)-3-methylsulfanylpropyl-ammonium trifluoroacetate]
- Log Kow (Log Kow): −1.15

Compound: CSCCC(N)CSSCC(Cc1ccccc1)C(=O)NC(Cc1ccccc1)C(=O)OCc1ccccc1 (stereo not shown) [Compound A, reference compound]
- Solubility in aqueous or hydrophilic solvents (Solubility in solvents): poorly soluble
- % analgesia (male OF1 mice; 5 mg/kg IV, ethanol/Cremophor EL/water 10/10/80, 10 min after injection (Table 5)): 51.1 ± 7.6 %

Compound: CSCCC(N)CSSCC(Cc1ccsc1)C(=O)NC(C)C(=O)OC(CO)CO.O=C(O)C(F)(F)F (stereo not shown) [Compound 12g, 1-(2-(1-(2-hydroxy-1-hydroxymethylethoxycarbonyl)-ethylcarbamoyl)-3-thiophen-3-ylpropyldisulfanylmethyl)-3-methylsulfanylpropyl-ammonium trifluoroacetate]
- Log Kow (Log Kow): −0.29

Compound: 1-(2-(1-(1-ethoxycarbonyloxyethoxycarbonyl)-2-hydroxypropylcarbamoyl)-3-thiophen-3-ylpropyldisulfanylmethyl)-3-methylsulfanylpropyl-ammonium trifluoroacetate [Compound 12e]
- Log Kow (Log Kow): 0.76

Compound: CCCCCc1cc(O)c2c(c1)OC(C)(C)[C@@H]1CCC(C)=C[C@@H]21 [Δ^9 THC, Δ^9 tetrahydrocannabinol, reference compound]
- % analgesia (male OF1 mice; 0.188 mg/kg IV, EtOH/Cremophor EL/water, 10 min after injection): 0.4 ± 3.9%
- % analgesia (male OF1 mice; 0.375 mg/kg IV, EtOH/Cremophor EL/water, 10 min after injection): 18.2 ± 6.4%
- % analgesia (male OF1 mice; 0.75 mg/kg IV, EtOH/Cremophor EL/water, 10 min after injection): 41.2 ± 12.7 %
- % analgesia (male OF1 mice; 1.5 mg/kg IV, EtOH/Cremophor EL/water, 10 min after injection): 57.2 ± 10.9 %
